The results in this text go back to patent US8324246B2, “Indol carboxylic acid bispyridyl carboxamide derivatives, pharmaceutically acceptable salt thereof, preparation method and composition containing the same as an active ingredient” (Korea Research Institute of Chemical Technology, priority 2008, dated 2012).

The target in data set [1] is T1, human gene recombinant 5-HT2c receptor expressed in CHO-K1 cell (Homo sapiens, UniProt P28335).
T1 construct: purchased Euroscreen, Belgium; host or cells: CHO-K1
T1 sequence (P28335 33-458): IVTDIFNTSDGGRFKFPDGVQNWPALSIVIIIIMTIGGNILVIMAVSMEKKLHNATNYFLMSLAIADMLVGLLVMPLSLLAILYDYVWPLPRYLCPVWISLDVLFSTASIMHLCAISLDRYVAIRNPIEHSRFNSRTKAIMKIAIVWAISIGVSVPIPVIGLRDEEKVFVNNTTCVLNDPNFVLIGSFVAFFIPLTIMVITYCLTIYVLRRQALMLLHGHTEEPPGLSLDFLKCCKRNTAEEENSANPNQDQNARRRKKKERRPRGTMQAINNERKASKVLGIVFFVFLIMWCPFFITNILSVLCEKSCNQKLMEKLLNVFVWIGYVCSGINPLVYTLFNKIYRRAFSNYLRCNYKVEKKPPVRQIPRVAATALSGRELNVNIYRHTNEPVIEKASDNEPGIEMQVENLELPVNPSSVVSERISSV
The data set can be described thus: Binding affinity to the serotonin 5-HT2c receptor ([3H]mesulergine). To be noted: [3H]mesulergine 1 nM, 37° C. 30 minutes; Table 2; read-out: IC50. As for the experimental part: As a receptor, a human gene recombinant 5-HT2c receptor expressed in CHO—K1 cell was purchased from Euroscreen, Belgium and used in the experiment, and as a radioactive isotope, [3H]mesulergine (Amersham Biosciences, UK).
A final volume of 0.25 ml reaction mixture was prepared by adding 50 mM Tris-HCl buffer (pH 7.7) containing one of the compounds in Examples 1-29 or Comparative Examples 1-2, 1 nM of [3H]mesulergine, 5-HT2c receptor membranes (4 D/well), 0.1% ascorbic acid and 10 µM pargyline, and incubated at 37° C. for 30 minutes. After incubation, the reaction was terminated by the rapid filtration using an Inotech harvester (Inotech) through a Wallace GF/C glass fiber filter (Wallac, Finland) which was presoaked in 1% BSA, and then washed with ice-cold 50 mM Tris-HCl buffer. The filter was covered with MeltiLex, sealed in a sample bag followed by drying in the oven, and counted by MicroBeta Plus (Wallac). Non-specific binding was determined in the presence of […] Mianserin. Three repeating experiments were carried out with 7-8 concentrations of the compound in Examples 1-29 or the compound in comparative examples 1-2, run in duplicate tubes, and isotherms from the three assays were calculated by a nonlinear regression analysis (GraphPad Prism Program, San Diego, USA) to yield IC50 values.

`Cc1ncccc1Oc1ccc(NS(=O)(=O)c2csc3ccccc23)cn1` [Example 2, benzo[b]thiophene-3-sulfonic acid[6-(2-methyl-pyridine-3-yloxy)-pyridine-3-yl]-amide]: the melting point was in the range of 93 to 95 °C. In data set [1], the IC50 was found to be 0.572 µM.

For the molecule `Cc1ncccc1Oc1ccc(NC(=O)c2ccc3ccccc3c2)cn1` [Example 8, naphthalene-2-carboxylic acid[6-(2-methyl-pyridine-3-yloxy)-pyridine-3-yl]-amide], the melting point lay within 156 to 158 °C. Besides, the IC50 in data set [1] amounted to 0.302 µM.

The molecule `Cc1ncccc1Oc1ccc(NC(=O)c2c[nH]c3ccccc23)cn1` [Example 6, 1H-indole-3-carboxylic acid[6-(2-methyl-pyridine-3-yloxy)-pyridine-3-yl]-amide] registered a melting point of 108 to 110 °C. The IC50 in data set [1] was found to be 0.067 µM.

`Cc1cc2c(cc1C(F)(F)F)N(C(=O)Nc1ccc(OCc3ccccn3)nc1)CC2` [Comparative Example 2, SB-247853] returned a melting point of 220 to 222 °C. For the same molecule, the IC50 in data set [1] is 0.0013 µM.

The molecule `Cc1ncccc1Oc1ccc(NC(=O)c2csc3ccccc23)cn1` [Example 4, benzo[b]thiophene-3-carboxylic acid[6-(2-methyl-pyridine-3-yloxy)-pyridine-3-yl]-amide] gave a melting point of 81 to 83 °C. Besides, the IC50 in data set [1] was determined as 0.05 µM.

In turn, `Cc1ncccc1Oc1ccc(NS(=O)(=O)c2coc3ccccc23)cn1` [Example 1, benzofuran-3-sulfonic acid[6-(2-methyl-pyridine-3-yloxy)-pyridine-3-yl]-amide] gave a melting point of 128 to 129 °C. In addition, in data set [1], the IC50 is 0.321 µM.

By IC50 is commonly meant the concentration at which inhibition is half-maximal. In general, melting point refers to the temperature of the solid-liquid transition.
